Changes are numbered by the printed parent chain.

One assay has as its target T1, BaF3-FLT3-ITD-D835V (Homo sapiens, UniProt P36888, INS600HVDFREYEYD/D835V, cells depend on it).
T1 sequence (P36888 with tags, fused parts or gaps INS600HVDFREYEYD/D835V): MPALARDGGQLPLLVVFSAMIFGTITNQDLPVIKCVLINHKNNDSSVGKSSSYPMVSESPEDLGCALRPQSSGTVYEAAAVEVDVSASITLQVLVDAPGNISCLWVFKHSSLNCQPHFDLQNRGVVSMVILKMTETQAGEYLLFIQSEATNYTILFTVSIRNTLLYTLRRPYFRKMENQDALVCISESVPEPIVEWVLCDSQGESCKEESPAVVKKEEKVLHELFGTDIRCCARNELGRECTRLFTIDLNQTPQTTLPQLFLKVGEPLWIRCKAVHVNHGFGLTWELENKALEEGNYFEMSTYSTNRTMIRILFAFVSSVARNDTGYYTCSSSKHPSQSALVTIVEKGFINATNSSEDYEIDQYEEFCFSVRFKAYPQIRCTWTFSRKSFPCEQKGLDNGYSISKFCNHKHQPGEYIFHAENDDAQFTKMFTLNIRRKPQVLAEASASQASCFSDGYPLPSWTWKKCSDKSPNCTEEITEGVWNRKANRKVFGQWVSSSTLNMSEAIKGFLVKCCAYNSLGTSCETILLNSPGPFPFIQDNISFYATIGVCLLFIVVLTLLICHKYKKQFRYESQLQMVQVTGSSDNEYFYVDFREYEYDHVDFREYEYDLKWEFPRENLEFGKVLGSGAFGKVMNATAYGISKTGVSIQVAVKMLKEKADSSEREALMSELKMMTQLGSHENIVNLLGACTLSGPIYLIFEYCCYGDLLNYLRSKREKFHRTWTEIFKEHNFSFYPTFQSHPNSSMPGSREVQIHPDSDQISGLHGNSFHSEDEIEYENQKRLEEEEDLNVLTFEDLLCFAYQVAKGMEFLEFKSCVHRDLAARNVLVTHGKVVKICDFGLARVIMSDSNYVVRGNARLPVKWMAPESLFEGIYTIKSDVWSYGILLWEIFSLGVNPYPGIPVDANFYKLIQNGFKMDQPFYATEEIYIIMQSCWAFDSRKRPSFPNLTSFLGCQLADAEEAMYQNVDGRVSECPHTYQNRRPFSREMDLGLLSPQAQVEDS
Briefly: CTB viability assay CS0048, BaF3-FLT3-ITD-D835V. It is filed as cell-based, murine. As to conditions: BaF3-FLT3-ITD-D835V cells, CellTiter Blue viability, 72 hours; read-out: Cell Assay: CS0048: BaF3-FLT3-ITD-D835V CTB:IC50. From the text:
(§1) Gene constructs containing the human FLT3 sequences FLT3-ITD, FLT3-ITD-F691L, FLT3-ITD-D835V and FLT3-D835V were synthesized by reverse translation of the human protein sequences, with codons optimized for mammalian expression. Sequence of the internal tandem duplication (ITD) was based on the MV4-11 ITD sequence. Synthetic DNA constructs were cloned into the pMSCV puro retroviral vector (Clontech) and transfected into the EcoPack2-293 packaging cell line (Clontech) to generate retroviruses that contain the different FLT3 constructs. Viruses were transduced into the IL-3-dependent, murine […] cell line, Ba/F3, and selected for puromycin resistance and IL-3 independence. All cell lines were cloned by limiting dilution and clones were used for all subsequent cell assays. Overexpression of the FLT3 mutants in the Ba/F3 cells results in constitutive phosphorylation of the exogenous FLT3 protein, which is required for IL-3 independence.
(§2) Cell lines were serum starved overnight in media containing 0.5% FBS, plated at 15,000 cells/well in 96-well white-walled tissue culture plates, and 3-fold serial dilutions of test compounds of Formula I were added for 72 hours at 37° C. CellTiter Blue (CTB, Promega) was added and incubated for an additional 3 hours at 37° C. Fluorescence was read at 560 nm excitation, 590 nm emission. Wells with CTB+media only were used for background subtraction, and the fluorescence of compound-treated cells was normalized to the fluorescence of DMSO-treated cells. IC50s were determined using Igor Pro software. All compounds are assayed in duplicate cell plates.
On the technique in general: Resazurin is reduced to fluorescent resorufin, in cell work by metabolically active cells.

Another assay addresses T2, BaF3-FLT3-ITD-F691L (Homo sapiens, UniProt P36888, INS600HVDFREYEYD/F691L, cells depend on it).
T2 sequence (P36888 with tags, fused parts or gaps INS600HVDFREYEYD/F691L): T1 sequence (P36888 with tags, fused parts or gaps INS600HVDFREYEYD/D835V) with F701L, V845D
Briefly: CTB viability assay CS0047, BaF3-FLT3-ITD-F691L. The settings on record: BaF3-FLT3-ITD-F691L cells, CellTiter Blue viability, 72 hours; read-out: Cell Assay: CS0047:BaF3-FLT3-ITD-F691L CTB:IC50. Format: cell-based, murine.
Description: as §1, §2

Consider `Cc1c(Nc2ncc(-c3ccc(CC(=O)Nc4cc(C5(C(F)(F)F)CC5)on4)c(F)c3)cn2)ncn1C` [P-075, 2-[4-[2-[(l,5-dimethylimidazol-4-yl)amino]pyrimidin-5-yl]-2-fluorophenyl]-N-[5-[1-(trifluoromethyl)cyclopropyl]isoxazol-3-yl]acetamide], for which the GI50 on BaF3-FLT3-ITD-D835V and at BaF3-FLT3-ITD-F691L was 10 to 50 nM each time. Turning to `COc1nn(C2CC2)cc1Nc1ncc(-c2ccc(CC(=O)Nc3cc(C4(C(F)(F)F)CC4)on3)c(F)c2)c(C)n1` [P-126, 2-[4-[2-[(1-cyclopropyl-3-methoxypyrazol-4-yl)amino]-4-methyl-pyrimidin-5-yl]-2-fluorophenyl]-N-[5-[1-(trifluoromethyl)cyclopropyl]isoxazol-3-yl]acetamide], the GI50 on BaF3-FLT3-ITD-D835V and at BaF3-FLT3-ITD-F691L was 10 to 50 nM throughout. Take `Cn1cncc1Nc1ncc(-c2ccc(CC(=O)Nc3cc(C4(C(F)(F)F)CC4)on3)c(F)c2)cn1` [P-132, 2-[2-fluoro-4-[2-[(3-methylimidazol-4-yl)amino]pyrimidin-5-yl]phenyl]-N-[5-[1-(trifluoromethyl)cyclopropyl]isoxazol-3-yl]acetamide]: the GI50 at BaF3-FLT3-ITD-D835V and at BaF3-FLT3-ITD-F691L was 10 to 50 nM in each case. Consider `Cc1nc(Nc2cn(C)cn2)ncc1-c1ccc(CC(=O)Nc2cc(C3(C(F)(F)F)CC3)on2)c(F)c1` [P-119, 2-[2-fluoro-4-[4-methyl-2-[(1-methylimidazol-4-yl)amino]pyrimidin-5-yl]phenyl]-N-[5-[1-(trifluoromethyl)cyclopropyl]isoxazol-3-yl]acetamide], for which the GI50 at BaF3-FLT3-ITD-D835V was 50 to 100 nM; at BaF3-FLT3-ITD-F691L, 10 to 50 nM. As for `C=CC(=O)Nc1nn(C)cc1Nc1ncc(-c2ccc(CC(=O)Nc3cc(C4(C(F)(F)F)CC4)on3)c(F)c2)cn1` [P-125, N-[4-[[5-[3-fluoro-4-[2-oxo-2-[[5-[1-(trifluoromethyl)cyclopropyl]isoxazol-3-yl]amino]ethyl]phenyl]pyrimidin-2-yl]amino]-1-methyl-pyrazol-3-yl] prop-2-enamide], the values for the GI50 on BaF3-FLT3-ITD-D835V and on BaF3-FLT3-ITD-F691L were 50 to 100 nM and 10 to 50 nM, respectively. With `COCCn1ncc(Nc2ncc(-c3ccc(CC(=O)Nc4cc(C5(C(F)(F)F)CC5)on4)c(F)c3)cn2)c1C1CC1` [P-204, 2-[4-[2-[[5-cyclopropyl-1-(2-methoxyethyl)pyrazol-4-yl]amino]pyrimidin-5-yl]-2-fluoro-phenyl]-N-[5-[1-(trifluoromethyl)cyclopropyl]isoxazol-3-yl]acetamide], the GI50 at BaF3-FLT3-ITD-D835V and on BaF3-FLT3-ITD-F691L was 10 to 50 nM in each case. For `O=C(Cc1ccc(-c2cnc(Nc3cnccn3)nc2)cc1F)Nc1cc(C2(C(F)(F)F)CC2)on1` [P-086, 2-[2-fluoro-4-[2-(pyrazin-2-ylamino)pyrimidin-5-yl]phenyl]-N-[5-[1-(trifluoromethyl)cyclopropyl]isoxazol-3-yl]acetamide], the GI50 at BaF3-FLT3-ITD-D835V and at BaF3-FLT3-ITD-F691L was 10 to 50 nM each time. Consider `CCn1cncc1Nc1ncc(-c2ccc(CC(=O)Nc3cc(C4(C(F)(F)F)CC4)on3)c(F)c2)cn1` [P-147, 2-[4-[2-[(3-ethylimidazol-4-yl)amino]pyrimidin-5-yl]-2-fluoro-phenyl]-N-[5-[1-(trifluoromethyl)cyclopropyl]isoxazol-3-yl]acetamide], for which the GI50 on BaF3-FLT3-ITD-D835V fell in the range of 50 to 100 nM; at BaF3-FLT3-ITD-F691L, 10 to 50 nM.

As for `O=C(Cc1ccc(-c2cnc(Nc3cnn(CCO)c3C3CC3)nc2)cc1F)Nc1cc(C2(C(F)(F)F)CC2)on1` [P-210, 2-[4-[2-[[5-cyclopropyl-1-(2-hydroxyethyl)pyrazol-4-yl]amino]pyrimidin-5-yl]-2-fluorophenyl]-N-[5-[1-(trifluoromethyl)cyclopropyl]isoxazol-3-yl]acetamide], the GI50 at BaF3-FLT3-ITD-D835V and at BaF3-FLT3-ITD-F691L was 10 to 50 nM each time. As to `COc1nc(Nc2cn(C)nc2C)ncc1-c1ccc(CC(=O)Nc2cc(C3(C(F)(F)F)CC3)on2)c(F)c1` [P-117, 2-[4-[2-[(l,3-dimethylpyrazol-4-yl)amino]-4-methoxy-pyrimidin-5-yl]-2-fluorophenyl]-N-[5-[1-(trifluoromethyl)cyclopropyl]isoxazol-3-yl]acetamide], the GI50 on BaF3-FLT3-ITD-F691L was 10 to 50 nM.

The values above are taken from patent publication US10829484B2, “Compounds and methods for kinase modulation, and indications therefor” (Plexxikon Inc., priority 2015, dated 2020).
